According to patent US9274100B2, “Method for optical measuring variations of cell membrane conductance” (OSPEDALE SAN RAFFAELE S.R.L., priority 2009, dated 2016):

How the values were obtained:
[1] = test system: HeLa cells; assay: Optical detection of changes in membrane conductance induced by aspecific permeabilization (fast-VSD, electric current pulses, internal control); type: cell-based; details: measures up to four minutes after administration, conductance normalised to value at t=0
Description: (§1) Before the experiment, cells were washed with a Krebs-Ringer's solution buffered with HEPES (KRH; in mM: 150 NaCl, 5 KCl, 1.2 MgSO4, 1.2 KH2PO4, 2 CaCl2, 10 glucose, and 10 HEPES, pH 7.4) and incubated with […] di-4-ANEPPS, a fast-VSD (Invitrogen).
(§2) Conductance changes were monitored by measuring the change in fluorescence induced by electric current pulses, quantified as the difference between the mean of plateau values (either positive or negative, depending on the type of stimulus and geometry of the cell) and the mean of pre-stimulation values divided by the mean of pre-stimulation values, ΔF %. As detailed above, normalisation for the values prevailing before stimulation provided a correction for dye bleaching during the experiment, so that fluorescence changes produced by additional stimuli could be compared. […]
(§3) The responsivity to the molecule active on membrane permeability was determined according to two different protocols: • Estimation of conductance with internal control (responses, before and after exposure to the experimental treatment, measured on the same pixels). […]
(§4) Afterward, membrane potential changes evoked by current pulses of fixed intensity were calculated within the same subcellular regions identified by the functional mask after exposure to the experimental treatment. […]

[2] = test system: HeLa cells; assay: Optical detection of changes in plasma membrane conductance induced by streptolysin-O (fast-VSD, electric current pulses, internal control); type: cell-based; details: increasing streptolysin-O concentration (50, 100 and 150 units), hyperpolarising and depolarising responses
Description: as §1, §2, §3, §4

triton X-100
effect on membrane conductance ([1]; 0.05% volume): negligible effect | effect on membrane conductance ([1]; 0.5% volume): marked drop

streptolysin-O: bacterial protein able to insert into the eukaryotic plasma membrane where it forms a non selective ionic channel
Fast-VSD fluorescence variation during unipolar square pulse [2]: clear reduction in the fluorescence variation
